In ChEMBL document CHEMBL5376006, “Discovery of a Hidden Pocket beneath the NES Groove by Novel Noncovalent CRM1 Inhibitors” (J Med Chem, 2023):
pIC50, pKd: −log10 of the molar value. Activity calls are given as the source filed them. The rule behind the calls is not given here.

Columns and labels:
[1] = test system: SK-N-SH; test: Antiproliferative activity against human SK-N-SH cells assessed as inhibition of cell growth incubated for 1 hrs by CellTiter Glo assay; type: functional, cell-based
[2] = test system: HCT-116; test: Antiproliferative activity against human HCT-116 cells assessed as inhibition of cell growth incubated for 72 hrs by CellTiter Glo assay; type: functional, cell-based; conditions: HCT-116, 72 h
[3] = test system: SiHa; test: Antiproliferative activity against human SiHa cells assessed as inhibition of cell growth incubated for 1 hrs by CellTiter Glo assay; type: functional, cell-based
[4] = test system: SiHa; test: Antiproliferative activity against human SiHa cells assessed as inhibition of cell growth incubated for 72 hrs by CellTiter Glo assay; type: functional, cell-based
[5] = test system: HCT-116; test: Antiproliferative activity against human HCT-116 cells assessed as inhibition of cell growth incubated for 1 hrs by CellTiter Glo assay; type: functional, cell-based; conditions: HCT-116, 1 h
[6] = test system: SK-N-SH; test: Antiproliferative activity against human SK-N-SH cells assessed as inhibition of cell growth incubated for 72 hrs by CellTiter Glo assay; type: functional, cell-based
[7] = test system: HepG2; test: Antiproliferative activity against human HepG2 cells assessed as inhibition of cell growth at 20 uM incubated for 72 hrs by SRB assay; type: functional, cell-based
[8] = target: T1, Exportin-1 (Homo sapiens, UniProt O14980); test: Binding affinity to CRM1 (unknown origin) assessed as inhibition of CRM1 binding to IAF-conjugated NES PKI by measuring dissociation constant in the presence of RanGTP by competitive MST analysis
[9] = test system: A549; test: Induction of apoptosis in human A549 cells assessed as activation of phosphorylated JNK at 50 uM incubated for 18 hrs by Western blot analysis; type: functional, cell-based
[10] = test system: PANC-1; test: Antiproliferative activity against human PANC-1 cells assessed as inhibition of cell growth at 20 uM incubated for 72 hrs by SRB assay; type: functional, cell-based
[11] = Solubility of the compound in water; type: physicochemical
[12] = target: T1, Exportin-1; test: Inhibition of CRM1 cargo nuclear export in digitonin-permeabilized human HeLa cells at 50 uM incubated for 4 hrs by confocal microscopic analysis; type: cell-based
[13] = test system: A549; test: Inhibition of colony formation in human A549 cells at 40 uM incubated for 48 hrs by crystal violet staining based analysis relative to control; type: functional
[14] = target: T1, Exportin-1; test: Inhibition of CRM1 cargo nuclear export in human MCF7 cells at 50 uM incubated for 4 hrs by confocal microscopic analysis; type: cell-based
[15] = test system: HeLa; test: Antiproliferative activity against human HeLa cells assessed as inhibition of cell growth incubated for 72 hrs by SRB assay; type: functional, cell-based
[16] = Toxicity in mouse assessed as body weight loss at 100 mg/kg, ip administered for 2 weeks; type: organism-based; conditions: in vivo, 336 h
[17] = test system: A549; test: Inhibition of colony formation in human A549 cells at 20 uM incubated for 48 hrs by crystal violet staining based analysis; type: functional, cell-based
[18] = target: T1, Exportin-1; test: Inhibition of CRM1 cargo nuclear export in human A549 cells at 50 uM incubated for 4 hrs by confocal microscopic analysis; type: cell-based
[19] = test system: HeLa; test: Antiproliferative activity against human HeLa cells assessed as inhibition of cell growth at 20 uM incubated for 72 hrs by SRB assay; type: functional, cell-based
[20] = test system: SW480; test: Antiproliferative activity against human SW480 cells assessed as inhibition of cell growth at 20 uM incubated for 72 hrs by SRB assay; type: functional, cell-based
[21] = test system: Exportin-1 (Homo sapiens), O14980 [C528S]; test: Inhibition of human CRM1 C528S mutant nuclear export transfected in human MCF7 cells at 50 uM incubated for 4 hrs by confocal microscopic analysis; type: cell-based
[22] = test system: A2780; test: Antiproliferative activity against human A2780 cells assessed as inhibition of cell growth at 20 uM incubated for 72 hrs by SRB assay; type: functional, cell-based
[23] = test system: A549; test: Induction of apoptosis in human A549 cells at 50 uM incubated for 18 hrs by Annexin V-FITC/PI staining based flow cytometric analysis; type: functional, cell-based
[24] = test system: OVCAR-8; test: Antiproliferative activity against human OVCAR-8 cells assessed as inhibition of cell growth at 20 uM incubated for 72 hrs by SRB assay; type: functional, cell-based
[25] = test system: MCF7; test: Antiproliferative activity against human MCF7 cells assessed as inhibition of cell growth at 20 uM incubated for 72 hrs by SRB assay; type: functional, cell-based
[26] = target: T1, Exportin-1; test: Binding affinity to CRM1 in human HeLa assessed as thermal stabilization at 20 uM incubated at 60 to 84 degreeC for 3 mins by CETSA based Western blot analysis; type: cell-based
[27] = test system: A549; test: Antiproliferative activity against human A549 cells assessed as inhibition of cell growth at 20 uM incubated for 72 hrs by SRB assay; type: functional, cell-based
[28] = Cytotoxicity against HEK293T cells assessed as inhibition of cell growth incubated for 72 hrs by SRB assay; type: toxicity, cell-based, HEK-293T; conditions: human
[29] = test system: Ishikawa; test: Antiproliferative activity against human Ishikawa cells assessed as inhibition of cell growth at 20 uM incubated for 72 hrs by SRB assay; type: functional, cell-based
[30] = Toxicity in mouse at 100 mg/kg, ip administered for 2 weeks; type: organism-based; conditions: in vivo, 336 h
[31] = test system: A549; test: Induction of apoptosis in human A549 cells assessed as caspase-3 cleavage at 50 uM incubated for 18 hrs by Western blot analysis; type: functional, cell-based
[32] = test system: HuCCT-1; test: Antiproliferative activity against human HuCCT-1 cells assessed as inhibition of cell growth at 20 uM incubated for 72 hrs by SRB assay; type: functional, cell-based
[33] = test system: A549; test: Induction of apoptosis in human A549 cells assessed as PARP-1 cleavage at 50 uM incubated for 18 hrs by Western blot analysis; type: functional, cell-based
[34] = test system: MDA-MB-453; test: Antiproliferative activity against human MDA-MB-453 cells assessed as inhibition of cell growth at 20 uM incubated for 72 hrs by SRB assay; type: functional, cell-based
[35] = target: T1, Exportin-1; test: Non-covalent inhibition of CRM1 (unknown origin) binding to GST-tagged NES PKI at 20 uM incubated for 2 hrs in presence of DTT by Coomassie brilliant blue staining based pull-down assay
[36] = target: T1, Exportin-1; test: Covalent inhibition of CRM1 (unknown origin) binding to GST-tagged NES PKI at 20 uM incubated for 2 hrs in presence of DTT by Coomassie brilliant blue staining based pull-down assay
[37] = test system: MOLT-4; test: Antiproliferative activity against human MOLT-4 cells assessed as inhibition of cell growth incubated for 72 hrs by CellTiter Glo assay; type: functional, cell-based; conditions: MOLT-4, 72 h, pooled result: one value given for 6 cell lines, strains, targets or settings
[38] = target: T1, Exportin-1; test: Inhibition of CRM1 (unknown origin) binding to GST-tagged NES PKI at 100 uM incubated for 2 hrs in presence of DTT by Coomassie brilliant blue staining based pull-down assay
[39] = target: T1, Exportin-1; test: Inhibition of CRM1 (unknown origin) binding to GST-tagged NES PKI at 100 uM incubated for 1.5 hrs by Coomassie brilliant blue staining based pull-down assay
[40] = target: T1, Exportin-1; test: Inhibition of CRM1 (unknown origin) binding to GST-tagged NES PKI assessed as CRM1/NES band ratio incubated for 1.5 hrs by Coomassie brilliant blue staining based pull-down assay (reference value: 1.00); design: concentration or dose not given beside the values
[41] = target: T1, Exportin-1; test: Inhibition of GFP-fused CRM1 cargo nuclear export in human HeLa cells at 200 uM incubated for 4 hrs by confocal microscopic analysis; type: cell-based

T1 sequence (O14980 whole entry): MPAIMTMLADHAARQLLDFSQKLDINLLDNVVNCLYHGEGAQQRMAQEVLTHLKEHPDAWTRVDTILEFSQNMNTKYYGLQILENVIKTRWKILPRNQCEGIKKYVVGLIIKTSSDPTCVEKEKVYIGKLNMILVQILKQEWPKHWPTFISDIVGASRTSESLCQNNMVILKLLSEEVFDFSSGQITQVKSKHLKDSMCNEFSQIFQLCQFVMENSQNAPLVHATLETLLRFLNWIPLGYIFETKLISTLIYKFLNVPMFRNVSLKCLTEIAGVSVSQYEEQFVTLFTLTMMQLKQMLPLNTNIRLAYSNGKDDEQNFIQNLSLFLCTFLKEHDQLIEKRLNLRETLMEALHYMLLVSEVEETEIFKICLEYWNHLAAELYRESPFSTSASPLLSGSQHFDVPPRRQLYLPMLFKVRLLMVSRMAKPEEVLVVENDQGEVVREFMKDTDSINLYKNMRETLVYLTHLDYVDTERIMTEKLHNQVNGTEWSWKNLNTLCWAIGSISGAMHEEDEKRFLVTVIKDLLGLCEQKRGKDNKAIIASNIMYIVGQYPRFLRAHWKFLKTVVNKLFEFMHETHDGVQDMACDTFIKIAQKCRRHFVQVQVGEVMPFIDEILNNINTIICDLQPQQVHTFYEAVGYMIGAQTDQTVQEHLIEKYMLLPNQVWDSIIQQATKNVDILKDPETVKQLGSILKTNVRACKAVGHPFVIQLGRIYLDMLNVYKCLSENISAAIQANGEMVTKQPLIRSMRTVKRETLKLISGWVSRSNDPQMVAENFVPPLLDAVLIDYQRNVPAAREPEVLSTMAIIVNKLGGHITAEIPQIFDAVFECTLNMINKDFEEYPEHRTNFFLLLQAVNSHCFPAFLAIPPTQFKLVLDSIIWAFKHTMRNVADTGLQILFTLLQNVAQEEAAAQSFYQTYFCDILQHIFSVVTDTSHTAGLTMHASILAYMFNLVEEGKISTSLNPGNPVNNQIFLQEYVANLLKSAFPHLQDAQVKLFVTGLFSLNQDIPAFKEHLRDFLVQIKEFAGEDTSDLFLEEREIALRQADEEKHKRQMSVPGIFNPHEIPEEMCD
Chain of Exportin-1 (Homo sapiens), O14980 [C528S] (O14980 whole entry C528S): as the sequence (O14980 whole entry) above, with C528S counted along it

Compound | pKd [8] | solubility [11] [µg/mL] | inhibition [12] | inhibition [14] | pIC50 [15] | inhibition [18] | inhibition [21] | Activity [26] | Activity [7] | Activity [9] | Activity [10] | inhibition at 40 µM [13] [%] | inhibition [17] | Activity [19] | Activity [20] | Activity [22] | Activity [23] | Activity [24] | Activity [25] | IC50 at 72 h [28] [nM] | further results
CCC(=C/[C@H](C)C/C=C/C(C)=C/[C@@H](C)C(=O)[C@@H](C)[C@H](O)[C@@H](C)C/C(C)=C/C(=O)O)/C=C/[C@@H]1OC(=O)C=C[C@@H]1C [LEPTOMYCIN B] |  |  |  |  |  |  |  |  |  |  |  |  |  |  |  |  |  |  |  |  | pIC50 [1]: 9.52; pIC50 [2]: 9.52; pIC50 [3]: 9.52; pIC50 [4]: 9.52; pIC50 [5]: 9.52; pIC50 [6]: 9.52
CC(C)CCNC/C=C/[S+]([O-])c1cc(C(F)(F)F)cc(C(F)(F)F)c1 (stereo unspecified) |  |  |  |  |  |  |  |  |  |  |  |  |  |  |  |  |  |  |  |  | inhibition [35]: inactive
O=C(/C=C\n1cnc(-c2cc(C(F)(F)F)cc(C(F)(F)F)c2)n1)NNc1cnccn1 [SELINEXOR] |  |  |  |  | 6.37 |  |  |  |  |  |  |  |  |  |  |  |  |  |  | 730 | inhibition [36]: inactive; pIC50 [37]: 7.47
Cc1ccc(C)c(N2CCN(c3ccc(C(=O)O)cc3NC(=O)c3ccc(Cl)cc3)CC2)c1 | 4.92 |  |  |  |  |  |  |  |  |  |  |  |  |  |  |  |  |  |  |  | inhibition [38]: Active; inhibition [39]: Active; Ratio [40]: 0.02; inhibition [41]: inactive

Continued, in another order:

pKd [8] | solubility [11] [µg/mL] | inhibition [12] | inhibition [14] | pIC50 [15] | inhibition [18] | inhibition [21] | Activity [26] | Compound | Activity [7] | Activity [9] | Activity [10] | inhibition at 40 µM [13] [%] | inhibition [17] | Activity [19] | Activity [20] | Activity [22] | Activity [23] | Activity [24] | Activity [25] | IC50 at 72 h [28] [nM] | further results
5.44 | < 0.14 | Active | Active | 4.84 | Active | inactive | Active | O=C(O)c1ccc(N2CCN(c3cc(C(F)(F)F)ccc3C(F)(F)F)CC2)c(NC(=O)c2ccc(Cl)cc2)c1 | Active | Active | Active | 100 | Active | Active | Active | Active | Active | Active | Active | 39000 | Activity [16]: Non-Toxic; Activity [27]: Active; Activity [29]: Active; Activity [30]: Non-Toxic; Activity [31]: Active; Activity [32]: Active; Activity [33]: Active; Activity [34]: Active
5.80 | < 0.14 | Active | Active | 4.99 | Active | inactive | Active | O=C(O)c1ccc(N2CCN(c3cc(C(F)(F)F)cc(C(F)(F)F)c3)CC2)c(NC(=O)c2ccc(Br)cc2)c1 | Active | Active | Active | 100 | Active | Active | Active | Active | Active | Active | Active | 30900 | Activity [27]: Active; Activity [29]: Active; Activity [31]: Active; Activity [32]: Active; Activity [33]: Active; Activity [34]: Active
5.74 | < 0.14 | Active | Active | 4.82 | Active | inactive | Active | O=C(O)c1ccc(N2CCN(c3cc(C(F)(F)F)ccc3C(F)(F)F)CC2)c(NC(=O)c2ccc(Br)cc2)c1 | Active | Active | Active | 100 | Active | Active | Active | Active | Active | Active | Active | 40400 | Activity [27]: Active; Activity [29]: Active; Activity [31]: Active; Activity [32]: Active; Activity [33]: Active; Activity [34]: Active
